# Measurements: patent publication US7507766B2, “Treatment of cancers” (Pharma Mar, S.A., priority 2000, dated 2009)
# Starred links: 1 amine or outer side, 2 acyl side, 3 side chain; linkers in the order of their positions; H or OH if unused. Positions of bridges follow the written chain, without caps; N, C: chain ends. Non-standard residues stand in square brackets, D forms with d. Residues, ends and D or L forms follow the SMILES beside them. *: point of attachment. X1 = CC[C@H](C)[C@@H](N[*:1])[C@@H](O)CC(=O)O[C@H](C(=O)[C@H](C)C(=O)[*:2])C(C)C; NMeY = CN[C@@H](Cc1ccc(O)cc1)C(=O)O; dNMeL = CN[C@H](CC(C)C)C(=O)O; Pyruvoyl = CC(=O)C(=O)*
# How the values were obtained:
# [1] = Phase I study, 24 h continuous infusion every other week: toxicities; assay type: in vivo, human
# Procedure: (§1) Definitions for patient toxicities are adopted from WHO Criteria and the responses determined following WHO Response Criteria.
# (§2) A phase I and pharmacokinetic study of aplidine, given as a 24 h continuous infusion every other week in patients with solid tumours and non-Hodgkin lymphoma
# [2] = tested on: solid tumours and non-Hodgkin lymphoma; assay: clinical trials: antitumour responses in patients; assay type: in vivo, human
# Procedure: as §1, §2
# [3] = tested on: human colon cancer cell line, HT-29; settings: cited from earlier work
# MCF-7 = settings: aplidine 50 mmol/L; cited from earlier work
# [4] = dose level 200 mcg/m^2/2 wks, of 3 patients
# [5] = dose level 400 mcg/m^2/2 wks, of 3 patients
# [6] = dose level 800 mcg/m^2/2 wks, of 3 patients
# [7] = dose level 1600 mcg/m^2/2 wks, of 6 patients
# [8] = dose level 3200 mcg/m^2/2 wks, of 3 patients
# [9] = dose level 4000 mcg/m^2/2 wks, of 3 patients
# [10] = dose level 5000 mcg/m^2/2 wks, of 3 patients
# [11] = dose level 6000 mcg/m^2/2 wks, of 12 patients
# [12] = dose level 7000 mcg/m^2/2 wks, of 7 patients
smiles,measurement,setting,value
CC[C@H](C)[C@H]1NC(=O)[C@@H](NC(=O)[C@@H](CC(C)C)N(C)C(=O)[C@@H]2CCCN2C(=O)C(C)=O)[C@@H](C)OC(=O)[C@H](Cc2ccc(OC)cc2)N(C)C(=O)[C@@H]2CCCN2C(=O)[C@H](CC(C)C)NC(=O)[C@@H](C)C(=O)[C@H](C(C)C)OC(=O)C[C@@H]1O [aplidine] (Pyruvoyl-P[dNMeL]T[X1]LP[NMeY](Me); ester 3-C),"muscle biopsies, E/M finding",[1]; 2 patients,partial disappearance of thick filaments of myosin
same,"dose limiting toxicity (muscular changes), patients",[1]; 6000 mcg/m^2,1/9
same,time to recovery of toxicity after treatment discontinuation,[1]; Pat #27,≤ 3 weeks
same,"Nausea/vomiting G2, no. patients",[1]; [4],2
same,"Transaminitis G2, no. patients",[1]; [4],1
same,"Asthenia G2, no. patients",[1]; [5],2
same,"Hypertension G2, no. patients",[1]; [5],1
same,"Nausea/vomiting G2, no. patients",[1]; [5],1
same,"Flushing G1, no. patients",[1]; [6],1
same,"Muscle cramps G1 + G2, no. patients",[1]; [6],2
same,"Asthenia G2, no. patients",[1]; [7],2
same,"Asthenia G3, no. patients",[1]; [7],1
same,"Muscle cramps G1 + G2, no. patients",[1]; [7],1
same,"Nausea/vomiting G2, no. patients",[1]; [7],4
same,"Transaminitis G3, no. patients",[1]; [7],(1)
same,"Asthenia G2, no. patients",[1]; [8],1
same,"Flushing G1, no. patients",[1]; [8],1
same,"Muscle cramps G1 + G2, no. patients",[1]; [8],2
same,"Muscle pain G2, no. patients",[1]; [8],(1)
same,"Nausea/vomiting G3, no. patients",[1]; [8],(1)
same,"Asthenia G2, no. patients",[1]; [9],1
same,"Flushing G1, no. patients",[1]; [9],1
same,"Muscle cramps G1 + G2, no. patients",[1]; [9],2
same,"Muscle pain G1, no. patients",[1]; [9],2
same,"Nausea/vomiting G2, no. patients",[1]; [9],2
same,"Pain central catheter G2, no. patients",[1]; [9],2
same,"Asthenia G3, no. patients",[1]; [10],(1)
same,"CPK elevation G3, no. patients",[1]; [10],(1) [1]
same,"CPK elevation G4, no. patients",[1]; [10],(1) [1]
same,"Muscle cramps G1 + G2, no. patients",[1]; [10],2
same,"Muscle pain G1, no. patients",[1]; [10],1
same,"Muscle weakness G1, no. patients",[1]; [10],1
same,"Nausea/vomiting G2, no. patients",[1]; [10],1
same,"Transaminitis G2, no. patients",[1]; [10],1
same,"Asthenia G2, no. patients",[1]; [11],6
same,"CPK elevation G2, no. patients",[1]; [11],1(1)
same,"CPK elevation G3, no. patients",[1]; [11],1(1)
same,"Muscle cramps G1 + G2, no. patients",[1]; [11],1
same,"Muscle pain G1, no. patients",[1]; [11],1
same,"Muscle pain G2, no. patients",[1]; [11],2
same,"Muscle weakness G1, no. patients",[1]; [11],1(1)
same,"Muscle weakness G2, no. patients",[1]; [11],1(1)
same,"Nausea/vomiting G2, no. patients",[1]; [11],2
same,"Asthenia G2, no. patients",[1]; [12],2
same,"CPK elevation G2, no. patients",[1]; [12],1
same,"Flushing G1, no. patients",[1]; [12],1
same,"Muscle pain G1, no. patients",[1]; [12],1
same,"Nausea/vomiting G2, no. patients",[1]; [12],1
same,"Neutrophenia G4, no. patients",[1]; [12],1
same,"Transaminitis G2, no. patients",[1]; [12],1
same,responses in cancer patients,[2]; clinical trials,Responses in cancer patients have been observed
same,antitumour activity in patients,[2]; patients with NHL and renal carcinoma,Antitumour activity has been also noted
same,cytotoxic activity,[3],dose-dependent cytotoxic activity
same,growth inhibition,MCF-7,47%
